Reference: patent publication US9012443B2 (Amgen Inc., priority 2011, dated 2015)

target: Nav 1.7 (Homo sapiens (Human), UniProt Q15858); assay: Nav 1.7 IWQ in vitro assay (IonWorks Quattro population patch-clamp); type: cell-based; conditions: 293 cells stably transfected with Nav 1.7; second part of table; read-out: Nav1.7 IWQ IC50 IP
Outline: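 HEK293 cells stably expressing Nav 1.7, recorded by automated population patch-clamp with a train of depolarizations producing increasing inactivation. Single compound concentration added during 3–8 min unclamped period, then same protocol repeated. Leak-corrected current at 26th pulse to −20 mV gave percent block (duplicate); IC50 fitted from concentration–block curves.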

Chain of Nav 1.7 (Q15858 whole entry): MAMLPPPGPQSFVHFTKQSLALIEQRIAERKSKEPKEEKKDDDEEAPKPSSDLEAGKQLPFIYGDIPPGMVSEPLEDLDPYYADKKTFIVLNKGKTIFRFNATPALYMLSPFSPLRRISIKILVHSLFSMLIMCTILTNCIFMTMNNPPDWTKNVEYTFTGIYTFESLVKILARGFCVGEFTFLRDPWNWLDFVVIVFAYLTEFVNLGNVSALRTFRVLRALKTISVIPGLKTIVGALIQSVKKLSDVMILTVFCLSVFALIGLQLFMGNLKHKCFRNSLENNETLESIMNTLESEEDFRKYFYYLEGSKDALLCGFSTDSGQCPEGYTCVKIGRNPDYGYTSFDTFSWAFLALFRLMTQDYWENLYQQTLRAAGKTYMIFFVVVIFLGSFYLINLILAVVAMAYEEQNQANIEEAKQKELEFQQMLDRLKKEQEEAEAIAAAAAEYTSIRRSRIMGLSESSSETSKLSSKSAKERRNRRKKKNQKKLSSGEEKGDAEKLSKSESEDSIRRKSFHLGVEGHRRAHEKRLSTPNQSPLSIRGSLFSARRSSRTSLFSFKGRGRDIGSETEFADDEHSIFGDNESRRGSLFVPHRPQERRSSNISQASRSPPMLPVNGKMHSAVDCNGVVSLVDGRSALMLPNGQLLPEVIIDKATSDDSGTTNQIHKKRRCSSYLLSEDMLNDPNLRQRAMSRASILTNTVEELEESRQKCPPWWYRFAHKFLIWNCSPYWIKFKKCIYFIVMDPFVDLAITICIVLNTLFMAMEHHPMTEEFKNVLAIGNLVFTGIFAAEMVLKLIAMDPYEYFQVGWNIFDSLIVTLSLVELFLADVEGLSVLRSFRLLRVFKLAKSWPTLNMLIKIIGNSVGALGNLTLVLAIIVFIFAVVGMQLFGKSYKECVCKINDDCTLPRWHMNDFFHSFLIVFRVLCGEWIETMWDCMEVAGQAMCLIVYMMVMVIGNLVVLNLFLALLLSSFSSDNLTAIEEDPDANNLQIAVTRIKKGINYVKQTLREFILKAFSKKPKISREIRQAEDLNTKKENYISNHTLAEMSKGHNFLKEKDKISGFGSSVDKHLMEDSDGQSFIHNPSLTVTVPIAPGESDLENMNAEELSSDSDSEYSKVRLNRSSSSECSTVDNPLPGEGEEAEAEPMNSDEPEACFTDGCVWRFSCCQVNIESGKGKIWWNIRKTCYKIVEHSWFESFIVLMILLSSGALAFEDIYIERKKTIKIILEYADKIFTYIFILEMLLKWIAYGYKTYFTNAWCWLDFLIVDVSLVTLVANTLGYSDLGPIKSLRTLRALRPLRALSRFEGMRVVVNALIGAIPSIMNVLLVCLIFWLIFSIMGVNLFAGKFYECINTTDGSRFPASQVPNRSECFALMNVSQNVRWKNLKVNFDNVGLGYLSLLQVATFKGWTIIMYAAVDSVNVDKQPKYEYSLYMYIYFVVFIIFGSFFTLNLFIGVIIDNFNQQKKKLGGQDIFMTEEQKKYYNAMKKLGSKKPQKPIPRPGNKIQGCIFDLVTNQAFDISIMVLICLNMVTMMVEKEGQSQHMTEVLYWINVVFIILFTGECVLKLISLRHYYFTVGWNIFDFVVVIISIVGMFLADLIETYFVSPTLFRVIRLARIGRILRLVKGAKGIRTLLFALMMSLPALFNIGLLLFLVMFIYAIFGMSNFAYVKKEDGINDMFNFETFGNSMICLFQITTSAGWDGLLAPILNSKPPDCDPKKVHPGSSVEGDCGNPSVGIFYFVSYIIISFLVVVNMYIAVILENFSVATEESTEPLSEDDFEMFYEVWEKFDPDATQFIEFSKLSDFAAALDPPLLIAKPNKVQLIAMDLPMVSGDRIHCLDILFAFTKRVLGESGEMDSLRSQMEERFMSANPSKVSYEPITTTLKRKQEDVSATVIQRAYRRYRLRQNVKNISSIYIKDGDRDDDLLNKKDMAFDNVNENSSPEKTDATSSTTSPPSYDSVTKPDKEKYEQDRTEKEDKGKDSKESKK

Row | SMILES | IC50 [µM]
1 | O=S(=O)(Nc1ccncn1)c1ccc2c(C3CCCN3C3CCOCC3)nccc2c1 (stereo not shown) [Example 316, N-(PYRIMIDIN-4-YL)-1-(1-(TETRAHYDRO-2H-PYRAN-4-YL)PYRROLIDIN-2-YL)ISOQUINOLINE-6-SULFONAMIDE 2,2,2-TRIFLUOROACETATE] | > 10
2 | N#Cc1cccc2cc(S(=O)(=O)Nc3ncns3)ccc12 [Example 317] | > 10

same assay, conditions: at […]

Row | SMILES | Nav1.7 Single Point Data IWQ (at […]) (%)
3 | O=S(=O)(Nc1ccncn1)c1ccc2c(C3CCCN3C3CCOCC3)nccc2c1 (stereo not shown) [Example 316, N-(PYRIMIDIN-4-YL)-1-(1-(TETRAHYDRO-2H-PYRAN-4-YL)PYRROLIDIN-2-YL)ISOQUINOLINE-6-SULFONAMIDE 2,2,2-TRIFLUOROACETATE] | 26
4 | N#Cc1cccc2cc(S(=O)(=O)Nc3ncns3)ccc12 [Example 317] | 30
5 | Cc1nsc(NS(=O)(=O)c2ccc3c(-c4ccc(Cl)cc4C)nccc3c2)n1 [Example 356] | 27
6 | Cc1cnc(OCc2ccccc2)c(-c2nccc3cc(S(=O)(=O)Nc4nccs4)ccc23)c1 [Example 380, 1-(2-(BENZYLOXY)-5-METHYLPYRIDIN-3-YL)-N-(THIAZOL-2-YL)ISOQUINOLINE-6-SULFONAMIDE] | 40
7 | Cc1cnc(OCC2CCC2)c(-c2nccc3cc(S(=O)(=O)Nc4nccs4)ccc23)c1 [Example 381, 1-(2-(CYCLOBUTYLMETHOXY)-5-METHYLPYRIDIN-3-YL)-N-(THIAZOL-2-YL)ISOQUINOLINE-6-SULFONAMIDE] | 26.5
8 | Cc1cnc(OCCN(C)C)c(-c2nccc3cc(S(=O)(=O)Nc4ccncn4)ccc23)c1 [Example 382, 1-(2-(2-(DIMETHYLAMINO)ETHOXY)-5-METHYLPYRIDIN-3-YL)-N-(PYRIMIDIN-4-YL)ISOQUINOLINE-6-SULFONAMIDE] | 27.8
9 | Cc1cnc(OC2CCCN(C)C2)c(-c2nccc3cc(S(=O)(=O)Nc4ccncn4)ccc23)c1 (stereo not shown) [Example 383, 1-(5-METHYL-2-((1-METHYLPIPERIDIN-3-YL)OXY)PYRIDIN-3-YL)-N-(PYRIMIDIN-4-YL)ISOQUINOLINE-6-SULFONAMIDE] | 30.2
10 | CC(C)(C#N)c1ccccc1-c1nccc2cc(S(=O)(=O)Nc3nccs3)ccc12 [Example 385, 1-(2-(2-CYANOPROPAN-2-YL)PHENYL)-N-(THIAZOL-2-YL)ISOQUINOLINE-6-SULFONAMIDE] | 25.3
11 | Cc1cnc(OC[C@@H]2CCOC2)c(-c2nccc3cc(S(=O)(=O)Nc4nccs4)ccc23)c1 [Example 387, (R)-1-(5-METHYL-2-((TETRAHYDROFURAN-3-YL)METHOXY)PYRIDIN-3-YL)-N-(THIAZOL-2-YL)ISOQUINOLINE-6-SULFONAMIDE] | 20.6
12 | COc1cc(C(F)(F)F)ccc1-c1nccc2cc(S(=O)(=O)n3ccc(N)n3)ccc12 [Example 390, 1-((1-(2-METHOXY-4-(TRIFLUOROMETHYL)PHENYL)ISOQUINOLIN-6-YL) SULFONYL)-1H-PYRAZOL-3-AMINE] | 19.8
13 | COc1cc(C(F)(F)F)ccc1-c1nccc2cc(S(=O)(=O)Nc3cnncn3)ccc12 [Example 391, 1-(2-METHOXY-4-(TRIFLUOROMETHYL)PHENYL)-N-(1,2,4-TRIAZIN-5-YL)ISOQUINOLINE-6-SULFONAMIDE] | 34.8
14 | O=S(=O)(Nc1ccncn1)c1ccc2c(N3CCCC(c4cccc(F)c4)C3)nccc2c1 (stereo not shown) [Example 402, 1-(3-(3-FLUOROPHENYL)PIPERIDIN-1-YL)-N-(PYRIMIDIN-4-YL)ISOQUINOLINE-6-SULFONAMIDE] | 36.4
15 | CC1CN(c2cccc(F)c2)CCN1c1nccc2cc(S(=O)(=O)Nc3ccncn3)ccc12 (stereo not shown) [Example 403, 1-(4-(3-FLUOROPHENYL)-2-METHYLPIPERAZIN-1-YL)-N-(PYRIMIDIN-4-YL)ISOQUINOLINE-6-SULFONAMIDE] | 33.5
16 | CC(C)c1ccc2[nH]ncc2c1-c1nccc2cc(S(=O)(=O)Nc3ccncn3)ccc12 [Example 430, 1-(5-ISOPROPYL-1H-INDAZOL-4-YL)-N-(PYRIMIDIN-4-YL)ISOQUINOLINE-6-SULFONAMIDE] | 35.4
17 | CN1CCN(Cc2cccc(-c3nccc4cc(S(=O)(=O)Nc5ccncn5)ccc34)c2)CC1 [Example 431, 1-(3-((4-METHYLPIPERAZIN-1-YL)METHYL)PHENYL)-N-(PYRIMIDIN-4-YL)ISOQUINOLINE-6-SULFONAMIDE] | 20.2
18 | O=S(=O)(Nc1ccncn1)c1ccc2c(-c3ccc(N4CCCCC4)c(F)c3F)nccc2c1 [Example 432, 1-(2,3-DIFLUORO-4-(PIPERIDIN-1-YL)PHENYL)-N-(PYRIMIDIN-4-YL)ISOQUINOLINE-6-SULFONAMIDE] | 34.6
19 | Cc1cc(S(=O)(=O)N(C)C)ccc1-c1nccc2cc(S(=O)(=O)Nc3ccncn3)ccc12 [Example 433] | 21.2
20 | O=S(=O)(Nc1ccncn1)c1ccc2c(-c3cccc4cc[nH]c34)nccc2c1 [Example 434, 1-(1H-INDOL-7-YL)-N-(PYRIMIDIN-4-YL)ISOQUINOLINE-6-SULFONAMIDE] | 20.0
21 | COc1cc(-c2ccncc2)ccc1-c1nccc2cc(S(=O)(=O)Nc3ccncn3)ccc12 [Example 451, 1-(2-METHOXY-4-(PYRIDIN-4-YL)PHENYL)-N-(PYRIMIDIN-4-YL)ISOQUINOLINE-6-SULFONAMIDE] | 27.5
22 | COc1cc(-c2cnn(C)c2)ccc1-c1nccc2cc(S(=O)(=O)Nc3ccncn3)ccc12 [Example 454, 1-(2-METHOXY-4-(1-METHYL-1H-PYRAZOL-4-YL)PHENYL)-N-(PYRIMIDIN-4-YL)ISOQUINOLINE-6-SULFONAMIDE] | <20
23 | COc1cc(-c2ncc(Cl)s2)ccc1-c1nccc2cc(S(=O)(=O)Nc3ccncn3)ccc12 [Example 458, 1-(4-(5-CHLOROTHIAZOL-2-YL)-2-METHOXYPHENYL)-N-(PYRIMIDIN-4-YL)ISOQUINOLINE-6-SULFONAMIDE] | 24.7
24 | COc1cc(C(=O)CCCCO)ccc1-c1nccc2cc(S(=O)(=O)Nc3ccncn3)ccc12 [Example 463, 1-(4-(5-HYDROXYPENTANOYL)-2-METHOXYPHENYL)-N-(PYRIMIDIN-4-YL)ISOQUINOLINE-6-SULFONAMIDE] | 41.1
25 | COc1cc(C(F)(F)F)ccc1-c1nccc2cc(S(=O)(=O)Nc3cc(C(F)(F)F)ncn3)ccc12 [Example 496, 1-(2-METHOXY-4-(TRIFLUOROMETHYL)PHENYL)-N-(6-(TRIFLUOROMETHYL)PYRIMIDIN-4-YL)ISOQUINOLINE-6-SULFONAMIDE] | 24.7
26 | COc1cc(C(F)F)c(F)cc1-c1ncnc2cc(S(=O)(=O)NC3=NCCS3)ccc12 [Example 519, 4-(4-(DIFLUOROMETHYL)-5-FLUORO-2-METHOXYPHENYL)-N-(4,5-DIHYDROTHIAZOL-2-YL)QUINAZOLINE-7-SULFONAMIDE] | <20
27 | COc1cc(C(F)(F)F)ccc1-c1ncnc2cc(S(=O)(=O)NC3=NCCS3)ccc12 [Example 520, N-(4,5-DIHYDROTHIAZOL-2-YL)-4-(2-METHOXY-4-(TRIFLUOROMETHYL)PHENYL)QUINAZOLINE-7-SULFONAMIDE] | <20
28 | CCC1CCCCN1c1ncnc2cc(S(=O)(=O)Nc3nccs3)ccc12 (stereo not shown) [Example 535, 4-(2-ETHYLPIPERIDIN-1-YL)-N-(THIAZOL-2-YL)QUINAZOLINE-7-SULFONAMIDE] | 26
